Experimental data as given in patent publication US5140009A (Tap Pharmaceuticals, Inc., priority 1990, dated 1992).
Numbered stars: 1 amine (or outer) side, 2 acyl side, 3 side chain; on linkers, the order of the positions; unused ones are H or OH. Square brackets hold non-standard residues; d marks the D form. Peptide text beside a SMILES is read from it. * marks the point of attachment. Propanoyl(3-indol-3-yl) = O=C(CCc1c[nH]c2ccccc12)*; Butyryl(4-indol-3-yl) = O=C(CCCc1c[nH]c2ccccc12)*; Phenylacetyl(4-CF3) = O=C(Cc1ccc(C(F)(F)F)cc1)*; Propanoyl(3-(4-F-phenyl)) = O=C(CCc1ccc(F)cc1)*; Propanoyl(3-(4-MeO-Ph)) = COc1ccc(CCC(=O)*)cc1; Propanoyl(3-(4-Cl-Ph)) = O=C(CCc1ccc(Cl)cc1)*; 1Nal = N[C@@H](Cc1cccc2ccccc12)C(=O)O; d1Nal = N[C@H](Cc1cccc2ccccc12)C(=O)O; d2Nal = N[C@H](Cc1ccc2ccccc2c1)C(=O)O; Lys(iPr) = CC(C)NCCCC[C@H](N)C(=O)O; NMeY = CN[C@@H](Cc1ccc(O)cc1)C(=O)O; Benzoyl(4-F) = O=C(c1ccc(F)cc1)*; d3Pal = N[C@H](Cc1cccnc1)C(=O)O; dCha = N[C@H](CC1CCCCC1)C(=O)O; NMeL = CN[C@@H](CC(C)C)C(=O)O; Nicotinoyl = O=C(c1cccnc1)*; dOrn = NCCC[C@@H](N)C(=O)O; NMeS = CN[C@@H](CO)C(=O)O; Morpholide = C1CN(*)CCO1; Orn = NCCC[C@H](N)C(=O)O; X15 = O=C(Cc1ccc(O)cc1)*; NHcHex = C1CCC(N*)CC1; CO = O=C([*:1])[*:2]

Molecular target: T1, LHRH receptors (Rattus norvegicus, UniProt P30969)
T1 construct: Pituitary membranes containing LHRH receptors are prepared in batches from quick-frozen rat pituitaries; tissue Hilltop Labs; host or cells: rat pituitary membranes
T1 sequence (P30969 1-327): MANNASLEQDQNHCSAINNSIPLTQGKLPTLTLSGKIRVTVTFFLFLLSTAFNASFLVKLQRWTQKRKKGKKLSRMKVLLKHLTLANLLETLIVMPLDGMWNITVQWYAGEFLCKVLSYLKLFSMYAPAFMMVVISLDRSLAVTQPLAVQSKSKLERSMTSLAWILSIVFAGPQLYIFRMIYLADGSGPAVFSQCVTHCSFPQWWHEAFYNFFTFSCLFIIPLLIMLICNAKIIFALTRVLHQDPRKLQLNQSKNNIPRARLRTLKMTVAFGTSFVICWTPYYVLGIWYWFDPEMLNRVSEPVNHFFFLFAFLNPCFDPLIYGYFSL
Test: Receptor Binding (radioligand receptor binding assay)
Details: table 3; rat pituitary membranes, radioiodinated [D-Leu^6 -des Gly^10 ]-LHRH ethyl amide 50 pM, 2 hours at 4° C.; read-out: Receptor Binding pkI (converted)

With `CCNC(=O)[C@@H]1CCCN1C(=O)[C@H](CCCNC(=N)N)NC(=O)[C@H](CC(C)C)NC(=O)[C@@H](CCCN)NC(=O)[C@H](Cc1ccc(O)cc1)NC(=O)[C@H](CO)NC(=O)CCc1c[nH]c2ccccc12` [Compound 49, (4-9) [N-(3-(3-indole)propionyl)-Ser^4 -D-Orn^6 -Pro^9 NHEt]LHRH] ({Propanoyl(3-indol-3-yl)}-SY[dOrn]LRP-NHEt) as the compound, how does the Ki read?
Its Ki is 55 nM.

How did the Ki turn out when `CCNC(=O)[C@@H]1CCCN1C(=O)[C@H](CCCNC(=N)N)NC(=O)[C@H](CC(C)C)NC(=O)[C@H](Cc1c[nH]c2ccccc12)NC(=O)[C@H](Cc1ccc(O)cc1)NC(=O)[C@H](CO)NC(=O)[C@H](Cc1c[nH]c2ccccc12)NC(=O)Cc1ccc(C(F)(F)F)cc1` [Compound 106, (3-9)[N-(4-Trifluoromethylphenyl)acetyl -Trp^3,6 -Pro^9 NHEt]LHRH] ({Phenylacetyl(4-CF3)}-WSYWLRP-NHEt) was run?
The Ki was 0.851 nM.

How did the Ki turn out when `CCNC(=O)[C@@H]1CCCN1C(=O)[C@H](CCCN=C(N)N)NC(=O)[C@H](CC(C)C)NC(=O)[C@@H](Cc1c[nH]c2ccccc12)NC(=O)[C@H](Cc1ccc(O)cc1)NC(=O)[C@H](CO)NC(=O)[C@H](Cc1c[nH]c2ccccc12)NC(=O)Cc1ccc(O)cc1` [Compound 105, (3-9)[N-(4-Hydroxyphenyl)acetyl-Trp^3 -D -Trp^6 -Pro^9 NHEt]LHRH] (X15-WSY[dW]LRP-NHEt) was run?
Its Ki is 0.562 nM.

With `CCNC(=O)[C@@H]1CCCN1C(=O)[C@H](CCCN=C(N)N)NC(=O)[C@H](CC(C)C)NC(=O)[C@@H](Cc1c[nH]c2ccccc12)NC(=O)[C@H](Cc1ccc(O)cc1)NC(=O)[C@H](CO)NC(=O)[C@@H](Cc1ccc(O)cc1)NC(=O)CCc1ccc(Cl)cc1` [Compound 86, (3-9)[N-(3-(4-Chlorophenyl)propionyl)-D -Tyr^3 -D-Trp^6 -Pro^9 NHEt]LHRH] ({Propanoyl(3-(4-Cl-Ph))}-[dY]SY[dW]LRP-NHEt) as the compound, how does the Ki read?
Its Ki is 0.0174 nM.

Which Ki does the source give for `CCNC(=O)[C@@H]1CCCN1C(=O)[C@H](CCCNC(=N)N)NC(=O)[C@H](CC(C)C)NC(=O)[C@@H](Cc1c[nH]c2ccccc12)NC(=O)[C@H](Cc1ccc(O)cc1)NC(=O)[C@H](CO)NC(=O)[C@H](Cc1c[nH]c2ccccc12)NC(=O)CCc1ccc(OC)cc1` [Compound 95, (3-9)[N-(3-(4-Methoxyphenyl)propionyl) -Trp^3 -D-Trp^6 -Pro^9 NHEt]LHRH] ({Propanoyl(3-(4-MeO-Ph))}-WSY[dW]LRP-NHEt) here?
The Ki was 0.0776 nM.

With `CCNC(=O)[C@@H]1CCCN1C(=O)[C@H](CCCNC(=N)N)NC(=O)[C@H](CC(C)C)NC(=O)[C@@H](Cc1c[nH]c2ccccc12)NC(=O)[C@H](Cc1ccc(O)cc1)NC(=O)[C@H](CO)N(C)C(=O)[C@H](Cc1c[nH]c2ccccc12)NC(=O)[C@H](Cc1ccccc1)NC(=O)N1CCOCC1` [Compound 115, (2-9)[N-(N-alpha-Morpholinocarbonyl)-Phe^2 -N-Me-Ser^4 -D-Trp^6-Pro^9 -NHEt]LHRH] ({Morpholide-CO}-FW[NMeS]Y[dW]LRP-NHEt) as the compound, how does the Ki read?
Its Ki is 2.24 nM.

Which Ki does the source give for `CCNC(=O)[C@@H]1CCCN1C(=O)[C@H](CCCNC(=N)N)NC(=O)[C@H](CC(C)C)NC(=O)[C@@H](Cc1c[nH]c2ccccc12)NC(=O)[C@H](Cc1ccc(O)cc1)NC(=O)[C@H](CO)NC(=O)CCc1ccc(F)cc1` [Compound 77, (4-9)[N-(3-(4-Fluorophenyl)propionyl) -Ser^4 -D-Trp^6 -Pro^9 NHEt]LHRH] ({Propanoyl(3-(4-F-phenyl))}-SY[dW]LRP-NHEt) here?
The Ki was 3.98 nM.

With `CCNC(=O)[C@@H]1CCCN1C(=O)[C@H](CCCNC(=N)N)NC(=O)[C@H](CC(C)C)NC(=O)[C@@H](Cc1c[nH]c2ccccc12)NC(=O)[C@H](Cc1ccc(O)cc1)NC(=O)[C@H](CO)NC(=O)[C@H](Cc1c[nH]c2ccccc12)NC(=O)[C@H](Cc1ccccc1)NC(=O)NC1CCCCC1` [Compound 125, (2-9)[N-(N-alpha-Cyclohexylaminocarbonyl)-Phe^2 -D-Trp^6 -Pro^9 NHEt]LHRH] ({NHcHex-CO}-FWSY[dW]LRP-NHEt) as the compound, how does the Ki read?
Its Ki is 0.251 nM.

With `CCNC(=O)[C@@H]1CCCN1C(=O)[C@H](CCCNC(=N)N)NC(=O)[C@H](CC(C)C)NC(=O)[C@@H](CC1CCCCC1)NC(=O)[C@H](Cc1ccc(O)cc1)NC(=O)[C@H](CO)NC(=O)CCCc1c[nH]c2ccccc12` [Compound 36, (4-9)[N-(4-(3-Indole)butyryl)-Ser^4 -D-Cha^6 -Pro^9 -NHEt]LHRH] ({Butyryl(4-indol-3-yl)}-SY[dCha]LRP-NHEt) as the compound, how does the Ki read?
Its Ki is 17 nM.

Same assay, conditions: table 4; rat pituitary membranes, radioligand 50 pM, 2 hours at 4° C.; read-out: Receptor Binding pkI (converted)

For `CC(C)C[C@H](NC(=O)[C@@H](CCCCN)NC(=O)[C@H](Cc1ccc(O)cc1)N(C)C(=O)[C@H](CO)NC(=O)[C@@H](Cc1ccc2ccccc2c1)NC(=O)CCc1ccc(F)cc1)C(=O)N[C@@H](CCCNC(=N)N)C(=O)N1CCC[C@H]1C(=O)N[C@H](C)C(N)=O` [Compound 186, (3-10)[N-(3-(4-Fluorophenyl)propionyl)-D-2-Nal^3 -NMeTyr^5 -D-Lys^6 -D-Ala^10]LHRH] ({Propanoyl(3-(4-F-phenyl))}-[d2Nal]S[NMeY][dK]LRP[dA]-NH2), which Ki is on record?
The Ki was 0.0339 nM.

With `COc1ccc(C[C@H](NC(=O)[C@H](CO)NC(=O)[C@@H](Cc2cccc3ccccc23)NC(=O)CCc2ccc(F)cc2)C(=O)N[C@H](CCCCN)C(=O)N[C@@H](CC(C)C)C(=O)N[C@@H](CCCNC(=N)N)C(=O)N2CCC[C@H]2C(=O)N[C@H](C)C(N)=O)cc1` [Compound 188, (3-10)[N-(3-(4-Fluorophenyl)propionyl)-D-1-Nal^3 -Tyr^5 (OMe)-D-Lys^6 -D-Ala^10]LHRH] ({Propanoyl(3-(4-F-phenyl))}-[d1Nal]SY(Me)[dK]LRP[dA]-NH2) as the compound, how does the Ki read?
Its Ki is 0.00331 nM.

How did the Ki turn out when `CC(C)C[C@H](NC(=O)[C@@H](CCCCN)NC(=O)[C@H](Cc1ccc(O)cc1)N(C)C(=O)[C@H](CO)NC(=O)[C@@H](Cc1cccnc1)NC(=O)CCc1ccc(F)cc1)C(=O)N[C@@H](CCCNC(=N)N)C(=O)N1CCC[C@H]1C(=O)N[C@H](C)C(N)=O` [Compound 170, (3-10)[N-(3-(4-Fluorophenyl)propionyl)-D-3-Pal^3 -NMeTyr^5 -D-Lys^6 -D-Ala^10]LHRH] ({Propanoyl(3-(4-F-phenyl))}-[d3Pal]S[NMeY][dK]LRP[dA]-NH2) was run?
The Ki was 0.0204 nM.

How did the Ki turn out when `CC(C)C[C@H](NC(=O)[C@@H](CCCCNC(=O)c1cccnc1)NC(=O)[C@H](Cc1ccc(O)cc1)N(C)C(=O)[C@H](CO)NC(=O)[C@@H](Cc1cccnc1)NC(=O)CCc1ccc(F)cc1)C(=O)N[C@@H](CCCNC(=N)N)C(=O)N1CCC[C@H]1C(=O)N[C@H](C)C(N)=O` [Compound 171] ({Propanoyl(3-(4-F-phenyl))}-[d3Pal]S[NMeY][dK](Nicotinoyl)LRP[dA]-NH2) was run?
The Ki was 0.0676 nM.

For `CCNC(=O)[C@@H]1CCCN1C(=O)[C@H](CCCN=C(N)N)NC(=O)[C@H](CC(C)C)NC(=O)[C@@H](Cc1c[nH]c2ccccc12)NC(=O)[C@H](Cc1ccc(O)cc1)NC(=O)[C@H](CO)NC(=O)[C@H](Cc1cccc2ccccc12)NC(=O)CCc1ccc(F)cc1` [Compound 144, (3-9)[N-(3-(4-Fluorophenyl)propionyl) -1-Nal^3 -D-Trp^6 -Pro^9 NHEt]LHRH] ({Propanoyl(3-(4-F-phenyl))}-[1Nal]SY[dW]LRP-NHEt), which Ki is on record?
Its Ki is 0.0257 nM.

For `CC(C)C[C@H](NC(=O)[C@@H](Cc1cccnc1)NC(=O)[C@H](Cc1ccc(O)cc1)N(C)C(=O)[C@H](CO)NC(=O)[C@@H](Cc1cccc2ccccc12)NC(=O)CCc1ccc(F)cc1)C(=O)N[C@@H](CCCCNC(C)C)C(=O)N1CCC[C@H]1C(=O)N[C@H](C)C(N)=O` [Compound 208, (3-10)[N-(3-(4-Fluorophenyl)propionyl)-D-1-Nal^3 -NMeTyr^5 -D-3-Pal^6 -Lys^8 (N-epsilon-isopropyl)-D-Ala^10]LHRH] ({Propanoyl(3-(4-F-phenyl))}-[d1Nal]S[NMeY][d3Pal]L[Lys(iPr)]P[dA]-NH2), which Ki is on record?
The Ki was 0.0126 nM.

For `CC(C)C[C@@H](C(=O)N[C@@H](CCCNC(=N)N)C(=O)N1CCC[C@H]1C(=O)N[C@H](C)C(N)=O)N(C)C(=O)[C@@H](CCCCN)NC(=O)[C@H](Cc1ccc(O)cc1)N(C)C(=O)[C@H](CO)NC(=O)[C@@H](Cc1cccc2ccccc12)NC(=O)CCc1ccc(F)cc1` [Compound 190, (3-10)[N-(3-(4-Fluorophenyl)propionyl)-D-1-Nal^3 -NMeTyr^5 -D-Lys^6 -NMeLeu^7 -D-Ala^10]LHRH] ({Propanoyl(3-(4-F-phenyl))}-[d1Nal]S[NMeY][dK][NMeL]RP[dA]-NH2), which Ki is on record?
Its Ki is 0.0158 nM.

For `CC(=O)NCCC[C@H](NC(=O)c1ccc(F)cc1)C(=O)N[C@H](Cc1cccc2ccccc12)C(=O)N[C@@H](CO)C(=O)N[C@@H](Cc1ccc(O)cc1)C(=O)N[C@H](CCCCNC(=O)c1cccnc1)C(=O)N[C@@H](CC(C)C)C(=O)N[C@@H](CCCNC(=N)N)C(=O)N1CCC[C@H]1C(=O)N[C@H](C)C(N)=O` [Compound 217, N-alpha-(4-Fluorobenzoyl)-Orn(N-delta-acetyl)-D-1-Nal-Ser-Tyr-D-Lys(N-epsilon-nicotinyl)-Leu-Arg-Pro-D-AlaNH2] ({Benzoyl(4-F)}-[Orn](Ac)[d1Nal]SY[dK](Nicotinoyl)LRP[dA]-NH2), which Ki is on record?
The Ki was 1.91 nM.

Which Ki does the source give for `CC(C)C[C@H](NC(=O)[C@@H](CCCCNC(=O)c1cccnc1)NC(=O)[C@H](Cc1ccc(O)cc1)N(C)C(=O)[C@H](CO)NC(=O)[C@@H](Cc1cccc2ccccc12)NC(=O)CCc1ccc(F)cc1)C(=O)N[C@@H](CCCNC(=N)N)C(=O)N1CCC[C@H]1C(=O)N[C@H](C)C(N)=O` [Compound 174, (3-10)[N-(3-(4-Fluorophenyl)propionyl)-D-1-Nal^3 -NMeTyr^5 -D-Lys^6 (N-epsilon-nicotinyl)-D-Ala^10]LHRH] ({Propanoyl(3-(4-F-phenyl))}-[d1Nal]S[NMeY][dK](Nicotinoyl)LRP[dA]-NH2) here?
The Ki was 0.0132 nM.
